Key:
Test in all cases: KINOMEscan competition binding
Settings in all cases: compound 10.0 µM
EPHA8 (human) = EPHA8 (human) (UniProt P29322)
TNNI3K (human) = TNNI3K (human) (UniProt Q59H18)
PIK3CB (human) = PIK3CB (human) (UniProt P42338)
PAK1 (human) = PAK1 (human) (UniProt Q13153)
PIK3C2B (human) = PIK3C2B (human) (UniProt O00750)
PTK2B (human) = PTK2B (human) (UniProt Q14289)
CSNK1G2 (human) = CSNK1G2 (human) (UniProt P78368)
LCK (human) = LCK (human) (UniProt P06239)
SRPK1 (human) = SRPK1 (human) (UniProt Q96SB4)
SRPK2 (human) = SRPK2 (human) (UniProt P78362)
MAPK8 (human) = MAPK8 (human) (UniProt P45983)
CDC2L2 (human) = CDC2L2 (human) (UniProt Q9UQ88)
EPHA6 (human) = EPHA6 (human) (UniProt Q9UF33)
PLK3 (human) = PLK3 (human) (UniProt Q9H4B4)
TYRO3 (human) = TYRO3 (human) (UniProt Q06418)
FLT1 (human) = FLT1 (human) (UniProt P17948)
STK32B (human) = STK32B (human) (UniProt Q9NY57)
MAPK7 (human) = MAPK7 (human) (UniProt Q13164)
CaMK1 (human) = CaMK1 (human) (UniProt Q14012)
PRKD3 (human) = PRKD3 (human) (UniProt O94806)
TNK2 (human) = TNK2 (human) (UniProt Q07912)
PRKD1 (human) = PRKD1 (human) (UniProt Q15139)
RPS6KA6 KD2 (human) = RPS6KA6 KD2 (human) (UniProt Q9UK32)
[1] = target: JAK1 JH1 catalytic (human) (UniProt P23458)
CAMKK2 (human) = CAMKK2 (human) (UniProt Q96RR4)
CLK2 (human) = CLK2 (human) (UniProt P49760)
STK3 (human) = STK3 (human) (UniProt Q13188)
CDK16 (human) = CDK16 (human) (UniProt Q00536)
TLK1 (human) = TLK1 (human) (UniProt Q9UKI8)
AURKC (human) = AURKC (human) (UniProt Q9UQB9)
KDR (human) = KDR (human) (UniProt P35968)
MAPK3 (human) = MAPK3 (human) (UniProt P27361)
ITK (human) = ITK (human) (UniProt Q08881)
PIK3CA (human) = PIK3CA (human) (UniProt P42336)
PRKACB (human) = PRKACB (human) (UniProt P22694)
YES1 (human) = YES1 (human) (UniProt P07947)
TIE1 (human) = TIE1 (human) (UniProt P35590)
HCK (human) = HCK (human) (UniProt P08631)
FER (human) = FER (human) (UniProt P16591)
PIM2 (human) = PIM2 (human) (UniProt Q9P1W9)
DYRK1B (human) = DYRK1B (human) (UniProt Q9Y463)
CDK7 (human) = CDK7 (human) (UniProt P50613)
MYO3B (human) = MYO3B (human) (UniProt Q8WXR4)

KDR (human), sequence (P35968 whole entry, looked up): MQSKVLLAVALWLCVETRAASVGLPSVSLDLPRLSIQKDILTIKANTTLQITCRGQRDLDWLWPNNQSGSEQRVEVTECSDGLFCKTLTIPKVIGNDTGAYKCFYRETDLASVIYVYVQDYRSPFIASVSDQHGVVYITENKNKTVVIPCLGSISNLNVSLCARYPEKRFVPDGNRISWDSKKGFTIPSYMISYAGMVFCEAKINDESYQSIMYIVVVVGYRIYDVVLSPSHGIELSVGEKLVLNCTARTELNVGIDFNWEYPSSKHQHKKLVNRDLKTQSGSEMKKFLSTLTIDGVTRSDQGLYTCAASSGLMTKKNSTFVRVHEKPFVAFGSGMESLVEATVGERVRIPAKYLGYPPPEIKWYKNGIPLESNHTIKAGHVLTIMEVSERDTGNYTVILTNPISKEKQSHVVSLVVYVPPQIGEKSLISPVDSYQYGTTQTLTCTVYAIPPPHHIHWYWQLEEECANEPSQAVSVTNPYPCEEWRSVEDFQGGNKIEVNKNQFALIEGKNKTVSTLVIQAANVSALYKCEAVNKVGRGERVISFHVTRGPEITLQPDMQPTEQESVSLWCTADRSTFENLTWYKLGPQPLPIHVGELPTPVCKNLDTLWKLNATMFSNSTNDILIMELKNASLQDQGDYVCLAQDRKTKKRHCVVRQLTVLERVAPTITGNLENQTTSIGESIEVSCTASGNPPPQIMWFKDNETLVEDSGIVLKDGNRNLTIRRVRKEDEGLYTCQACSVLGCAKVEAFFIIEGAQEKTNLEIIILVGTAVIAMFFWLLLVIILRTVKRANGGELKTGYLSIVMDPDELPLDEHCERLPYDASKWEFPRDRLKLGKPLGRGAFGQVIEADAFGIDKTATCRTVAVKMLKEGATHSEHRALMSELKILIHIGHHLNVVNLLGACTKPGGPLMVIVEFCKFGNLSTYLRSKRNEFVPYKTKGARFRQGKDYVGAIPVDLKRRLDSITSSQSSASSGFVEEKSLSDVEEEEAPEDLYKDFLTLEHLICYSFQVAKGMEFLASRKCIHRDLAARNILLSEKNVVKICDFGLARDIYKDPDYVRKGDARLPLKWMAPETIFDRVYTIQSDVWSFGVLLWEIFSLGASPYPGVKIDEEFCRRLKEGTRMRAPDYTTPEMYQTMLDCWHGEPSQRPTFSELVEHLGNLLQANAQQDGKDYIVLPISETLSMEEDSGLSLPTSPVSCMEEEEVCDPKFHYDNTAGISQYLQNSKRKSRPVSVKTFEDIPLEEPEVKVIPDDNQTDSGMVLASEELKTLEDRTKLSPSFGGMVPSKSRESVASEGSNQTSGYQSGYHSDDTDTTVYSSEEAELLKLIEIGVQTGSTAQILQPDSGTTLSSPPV
MAPK8 (human), sequence (P45983 whole entry, looked up): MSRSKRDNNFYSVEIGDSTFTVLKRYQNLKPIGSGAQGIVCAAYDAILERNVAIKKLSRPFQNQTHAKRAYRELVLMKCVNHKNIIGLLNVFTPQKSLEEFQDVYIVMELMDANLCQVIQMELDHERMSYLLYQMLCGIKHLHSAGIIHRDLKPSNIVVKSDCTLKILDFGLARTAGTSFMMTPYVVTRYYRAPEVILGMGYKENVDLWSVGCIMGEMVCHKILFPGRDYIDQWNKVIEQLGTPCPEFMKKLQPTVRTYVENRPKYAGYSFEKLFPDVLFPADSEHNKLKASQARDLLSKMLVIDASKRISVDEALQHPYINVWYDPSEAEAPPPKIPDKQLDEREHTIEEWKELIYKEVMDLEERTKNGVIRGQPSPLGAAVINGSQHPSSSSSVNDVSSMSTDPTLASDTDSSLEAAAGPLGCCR
CAMKK2 (human), sequence (Q96RR4 whole entry, looked up): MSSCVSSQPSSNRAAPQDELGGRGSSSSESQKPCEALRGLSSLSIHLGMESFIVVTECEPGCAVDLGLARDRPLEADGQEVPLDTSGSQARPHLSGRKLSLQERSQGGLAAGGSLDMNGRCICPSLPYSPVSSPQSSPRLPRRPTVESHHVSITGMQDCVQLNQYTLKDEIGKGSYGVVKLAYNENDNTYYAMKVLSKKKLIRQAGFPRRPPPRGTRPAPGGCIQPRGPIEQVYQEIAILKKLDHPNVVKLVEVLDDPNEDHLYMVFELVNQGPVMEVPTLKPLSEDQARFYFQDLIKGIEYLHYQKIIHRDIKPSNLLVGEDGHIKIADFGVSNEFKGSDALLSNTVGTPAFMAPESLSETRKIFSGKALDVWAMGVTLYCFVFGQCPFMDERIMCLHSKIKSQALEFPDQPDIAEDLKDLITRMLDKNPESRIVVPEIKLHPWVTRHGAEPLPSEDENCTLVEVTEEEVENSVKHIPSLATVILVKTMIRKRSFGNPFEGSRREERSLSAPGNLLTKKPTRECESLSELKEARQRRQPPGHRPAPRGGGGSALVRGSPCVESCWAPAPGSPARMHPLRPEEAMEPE
EPHA8 (human), sequence (P29322 whole entry, looked up): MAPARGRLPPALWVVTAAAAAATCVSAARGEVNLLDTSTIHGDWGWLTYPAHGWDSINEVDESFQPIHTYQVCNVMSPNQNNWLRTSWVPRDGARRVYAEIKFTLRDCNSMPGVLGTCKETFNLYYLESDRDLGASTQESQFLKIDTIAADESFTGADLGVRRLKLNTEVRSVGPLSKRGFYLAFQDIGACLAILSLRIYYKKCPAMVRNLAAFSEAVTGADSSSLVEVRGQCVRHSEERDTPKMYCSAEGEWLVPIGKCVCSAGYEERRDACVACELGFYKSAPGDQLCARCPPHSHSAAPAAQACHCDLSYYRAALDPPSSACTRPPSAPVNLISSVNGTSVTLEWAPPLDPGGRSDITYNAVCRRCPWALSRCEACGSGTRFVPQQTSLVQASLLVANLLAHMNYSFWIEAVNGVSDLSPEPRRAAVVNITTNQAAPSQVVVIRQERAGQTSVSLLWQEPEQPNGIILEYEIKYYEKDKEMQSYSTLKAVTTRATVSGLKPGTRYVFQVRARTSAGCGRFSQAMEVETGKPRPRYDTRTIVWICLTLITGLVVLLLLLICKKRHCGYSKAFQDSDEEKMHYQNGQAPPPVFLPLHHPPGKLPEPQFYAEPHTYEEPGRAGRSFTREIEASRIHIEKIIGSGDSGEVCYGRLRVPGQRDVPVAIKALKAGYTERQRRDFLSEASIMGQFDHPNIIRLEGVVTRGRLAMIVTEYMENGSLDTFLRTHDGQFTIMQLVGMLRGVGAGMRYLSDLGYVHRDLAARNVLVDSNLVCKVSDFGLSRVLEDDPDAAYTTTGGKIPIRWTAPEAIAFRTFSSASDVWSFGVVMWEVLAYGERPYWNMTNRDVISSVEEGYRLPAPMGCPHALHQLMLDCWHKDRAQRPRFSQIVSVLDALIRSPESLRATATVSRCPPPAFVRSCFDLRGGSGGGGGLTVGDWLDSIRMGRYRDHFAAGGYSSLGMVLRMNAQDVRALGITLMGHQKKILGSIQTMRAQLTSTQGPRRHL
YES1 (human), sequence (P07947 whole entry, looked up): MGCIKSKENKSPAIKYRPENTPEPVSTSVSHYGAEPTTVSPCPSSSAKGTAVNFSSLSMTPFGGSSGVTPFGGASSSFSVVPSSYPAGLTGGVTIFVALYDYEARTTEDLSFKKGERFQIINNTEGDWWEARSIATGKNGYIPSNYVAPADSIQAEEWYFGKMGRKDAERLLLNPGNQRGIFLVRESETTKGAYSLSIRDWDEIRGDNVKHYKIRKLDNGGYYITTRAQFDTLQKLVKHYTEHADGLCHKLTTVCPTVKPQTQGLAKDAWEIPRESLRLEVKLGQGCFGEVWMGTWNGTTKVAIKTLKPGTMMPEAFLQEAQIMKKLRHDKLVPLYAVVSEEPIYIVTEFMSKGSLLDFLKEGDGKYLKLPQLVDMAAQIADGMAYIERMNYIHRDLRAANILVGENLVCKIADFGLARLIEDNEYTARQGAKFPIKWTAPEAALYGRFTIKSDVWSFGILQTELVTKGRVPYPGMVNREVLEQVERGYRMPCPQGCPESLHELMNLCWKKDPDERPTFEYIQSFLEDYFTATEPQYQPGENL
LCK (human), sequence (P06239 whole entry, looked up): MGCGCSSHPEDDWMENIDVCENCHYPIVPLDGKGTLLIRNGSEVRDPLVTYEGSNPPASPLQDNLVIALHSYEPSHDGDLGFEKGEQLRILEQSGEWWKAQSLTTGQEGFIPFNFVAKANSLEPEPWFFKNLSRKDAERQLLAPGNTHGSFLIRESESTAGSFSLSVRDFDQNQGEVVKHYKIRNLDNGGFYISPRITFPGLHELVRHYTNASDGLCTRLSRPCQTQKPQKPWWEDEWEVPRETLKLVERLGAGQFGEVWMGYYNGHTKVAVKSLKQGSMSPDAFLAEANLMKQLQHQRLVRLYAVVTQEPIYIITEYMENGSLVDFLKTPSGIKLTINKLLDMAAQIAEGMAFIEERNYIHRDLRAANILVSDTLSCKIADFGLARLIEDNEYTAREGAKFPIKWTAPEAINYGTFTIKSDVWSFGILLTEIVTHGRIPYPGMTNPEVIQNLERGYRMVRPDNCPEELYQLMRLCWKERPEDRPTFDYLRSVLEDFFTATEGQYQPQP
HCK (human), sequence (P08631 whole entry, looked up): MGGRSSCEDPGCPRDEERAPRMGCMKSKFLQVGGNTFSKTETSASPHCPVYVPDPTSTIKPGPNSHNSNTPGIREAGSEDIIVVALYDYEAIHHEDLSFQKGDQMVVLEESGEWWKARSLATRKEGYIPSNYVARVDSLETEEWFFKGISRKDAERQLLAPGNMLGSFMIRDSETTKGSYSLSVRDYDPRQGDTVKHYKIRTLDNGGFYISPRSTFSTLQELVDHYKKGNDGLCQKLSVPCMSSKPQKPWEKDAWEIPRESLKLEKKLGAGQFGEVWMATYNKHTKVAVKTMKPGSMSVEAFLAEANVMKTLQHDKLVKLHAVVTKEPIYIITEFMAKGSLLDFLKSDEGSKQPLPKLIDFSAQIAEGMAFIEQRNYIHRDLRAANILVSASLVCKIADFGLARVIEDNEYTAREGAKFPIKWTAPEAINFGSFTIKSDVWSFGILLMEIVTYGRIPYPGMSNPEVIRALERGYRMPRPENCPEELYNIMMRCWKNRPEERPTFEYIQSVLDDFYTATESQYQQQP

CCN1CCN(Cc2ccc(NC(=O)c3ccc(C)c(/C=C/c4cnc(Nc5cc(N6CCNCC6)nc(C)n5)cn4)c3)cc2C(F)(F)F)CC1
kinase still bound, per cent of control (EPHA8 (human)): 0.35%
kinase still bound, per cent of control (TNNI3K (human)): 12%
kinase still bound, per cent of control (PIK3CB (human)): 85%
kinase still bound, per cent of control (PAK1 (human)): 87%
kinase still bound, per cent of control (PIK3C2B (human)): 79%
kinase still bound, per cent of control (PTK2B (human)): 36%
kinase still bound, per cent of control (CSNK1G2 (human)): 96%
kinase still bound, per cent of control (LCK (human)): 0.45%
kinase still bound, per cent of control (SRPK1 (human)): 77%
kinase still bound, per cent of control (SRPK2 (human)): 100%
kinase still bound, per cent of control (MAPK8 (human)): 24%
kinase still bound, per cent of control (CDC2L2 (human)): 69%
kinase still bound, per cent of control (EPHA6 (human)): 51%
kinase still bound, per cent of control (PLK3 (human)): 83%
kinase still bound, per cent of control (TYRO3 (human)): 37%
kinase still bound, per cent of control (FLT1 (human)): 27%
kinase still bound, per cent of control (STK32B (human)): 100%
kinase still bound, per cent of control (MAPK7 (human)): 100%
kinase still bound, per cent of control (CaMK1 (human)): 90%
kinase still bound, per cent of control (PRKD3 (human)): 71%
kinase still bound, per cent of control (TNK2 (human)): 32%
kinase still bound, per cent of control (PRKD1 (human)): 90%
kinase still bound, per cent of control (RPS6KA6 KD2 (human)): 11%
kinase still bound, per cent of control [1]: 80%
kinase still bound, per cent of control (CAMKK2 (human)): 95%
kinase still bound, per cent of control (CLK2 (human)): 86%
kinase still bound, per cent of control (STK3 (human)): 100%
kinase still bound, per cent of control (CDK16 (human)): 60%
kinase still bound, per cent of control (TLK1 (human)): 100%
kinase still bound, per cent of control (AURKC (human)): 45%
kinase still bound, per cent of control (KDR (human)): 37%
kinase still bound, per cent of control (MAPK3 (human)): 94%
kinase still bound, per cent of control (ITK (human)): 86%
kinase still bound, per cent of control (PIK3CA (human)): 92%
kinase still bound, per cent of control (PRKACB (human)): 90%
kinase still bound, per cent of control (YES1 (human)): 1.4%
kinase still bound, per cent of control (TIE1 (human)): 2.8%
kinase still bound, per cent of control (HCK (human)): 0.4%
kinase still bound, per cent of control (FER (human)): 78%
kinase still bound, per cent of control (PIM2 (human)): 50%
kinase still bound, per cent of control (DYRK1B (human)): 76%
kinase still bound, per cent of control (CDK7 (human)): 3%
kinase still bound, per cent of control (MYO3B (human)): 67%

COc1cc(N2CCC(N3CCN(C)CC3)CC2)ccc1Nc1ncc(Cl)c(Nc2ccccc2S(=O)(=O)C(C)C)n1
kinase still bound, per cent of control (EPHA8 (human)): 40%
kinase still bound, per cent of control (TNNI3K (human)): 15%
kinase still bound, per cent of control (PIK3CB (human)): 40%
kinase still bound, per cent of control (PAK1 (human)): 4.8%
kinase still bound, per cent of control (PIK3C2B (human)): 40%
kinase still bound, per cent of control (PTK2B (human)): 0%
kinase still bound, per cent of control (CSNK1G2 (human)): 40%
kinase still bound, per cent of control (LCK (human)): 0.1%
kinase still bound, per cent of control (SRPK1 (human)): 2.2%
kinase still bound, per cent of control (SRPK2 (human)): 12%
kinase still bound, per cent of control (MAPK8 (human)): 5.2%
kinase still bound, per cent of control (EPHA6 (human)): 3.1%
kinase still bound, per cent of control (PLK3 (human)): 0%
kinase still bound, per cent of control (TYRO3 (human)): 24%
kinase still bound, per cent of control (FLT1 (human)): 2.8%
kinase still bound, per cent of control (STK32B (human)): 0.2%
kinase still bound, per cent of control (MAPK7 (human)): 0%
kinase still bound, per cent of control (CaMK1 (human)): 1.4%
kinase still bound, per cent of control (PRKD3 (human)): 0%
kinase still bound, per cent of control (TNK2 (human)): 0%
kinase still bound, per cent of control (PRKD1 (human)): 1%
kinase still bound, per cent of control (RPS6KA6 KD2 (human)): 1.8%
kinase still bound, per cent of control [1]: 4.7%
kinase still bound, per cent of control (CAMKK2 (human)): 0.1%
kinase still bound, per cent of control (CLK2 (human)): 0%
kinase still bound, per cent of control (STK3 (human)): 0.25%
kinase still bound, per cent of control (TLK1 (human)): 40%
kinase still bound, per cent of control (AURKC (human)): 0.1%
kinase still bound, per cent of control (KDR (human)): 2.2%
kinase still bound, per cent of control (MAPK3 (human)): 0.1%
kinase still bound, per cent of control (ITK (human)): 0.1%
kinase still bound, per cent of control (PIK3CA (human)): 40%
kinase still bound, per cent of control (PRKACB (human)): 9.9%
kinase still bound, per cent of control (YES1 (human)): 0.1%
kinase still bound, per cent of control (HCK (human)): 0.35%
kinase still bound, per cent of control (FER (human)): 0.05%
kinase still bound, per cent of control (PIM2 (human)): 40%
kinase still bound, per cent of control (DYRK1B (human)): 40%
kinase still bound, per cent of control (CDK7 (human)): 0.15%
kinase still bound, per cent of control (MYO3B (human)): 0.6%

CCN1CCN(Cc2ccc(NC(=O)c3ccc(C)c(Oc4ccnc5[nH]ccc45)c3)cc2C(F)(F)F)CC1
kinase still bound, per cent of control (EPHA8 (human)): 0.1%
kinase still bound, per cent of control (TNNI3K (human)): 4.8%
kinase still bound, per cent of control (PTK2B (human)): 2.1%
kinase still bound, per cent of control (LCK (human)): 0.8%
kinase still bound, per cent of control (MAPK8 (human)): 0%
kinase still bound, per cent of control (CDC2L2 (human)): 0.05%
kinase still bound, per cent of control (FLT1 (human)): 1.6%
kinase still bound, per cent of control (CaMK1 (human)): 0%
kinase still bound, per cent of control (CAMKK2 (human)): 28%
kinase still bound, per cent of control (CDK16 (human)): 11%
kinase still bound, per cent of control (KDR (human)): 1.5%
kinase still bound, per cent of control (PRKACB (human)): 14%
kinase still bound, per cent of control (YES1 (human)): 1.6%
kinase still bound, per cent of control (TIE1 (human)): 0.95%
kinase still bound, per cent of control (HCK (human)): 0.4%
kinase still bound, per cent of control (FER (human)): 0.5%
kinase still bound, per cent of control (CDK7 (human)): 2.4%
kinase still bound, per cent of control (MYO3B (human)): 4.8%

— the kinase profiling compilation of Christmann-Franck et al. (2016)
